Test results reported in PubChem BioAssay AID1981 (Southern Research Specialized Biocontainment Screening …, 2009).
Values joined by “and” are separate entries in the source; they are usually repeats but may differ in a detail not shown here. Equal entries are not always repeated.

Test system: S. Typhimurium PhoP-promoter GFP reporter counterscreen, fluorescence, 4 h
Experiment: S. Typhimurium GFP fluorescence modified counterscreen for PhoP regulon inhibitor project dose response (AID 1981)

CN1CCN(C(c2ccccn2)c2cc(Cl)c3cccnc3c2O)CC1 (stereo unspecified)
IC50: 67.3 µM

CCCCCc1ccc(OCCOCCn2c[n+](C)c3ccccc32)c(CCCCC)c1
IC50: 55 µM

Cc1ccc(S(=O)(=O)/N=C2/C=C(Sc3ncn[nH]3)C(=O)c3ccccc32)cc1
IC50: 36.6 µM

CC[C@H]1OC(=O)[C@H](C)[C@@H](O[C@H]2C[C@@](C)(OC)[C@@H](O)[C@H](C)O2)[C@H](C)[C@@H](O[C@@H]2O[C@H](C)C[C@H](N(C)C)[C@H]2O)[C@](C)(O)C[C@@H](C)CN(C)[C@H](C)[C@@H](O)[C@]1(C)O
IC50: 3.63 µM

O=[N+]([O-])c1cc(Cl)c2cccnc2c1O
IC50: 1.96 µM

CN(C)[C@@H]1C(=O)C(C(N)=O)=C(O)[C@@]2(O)C(=O)C3=C(O)c4c(O)cccc4[C@@](C)(O)C3[C@H](O)C12 (stereo partly specified)
IC50: 1.34 µM

COc1ccccc1CNCCc1ccc(F)cc1
IC50: 61.4 µM

CCCCCCNC(=O)c1cn(CC)c2cc(N3CCN(C)CC3)c(F)cc2c1=O
IC50: 32 µM

NC(=NCCCCCCN=C(N)/N=C(\N)Nc1ccc(Cl)cc1)/N=C(\N)Nc1ccc(Cl)cc1
IC50: 9.12 µM and 9.93 µM and 9.09 µM

CN1CCN(CCCN2c3ccccc3Sc3ccc(Cl)cc32)CC1
IC50: 148 µM

Cc1nc(N)nc(N)c1/C=C/C(C)(C)c1ccc(Cl)cc1
IC50: 12.9 µM

Oc1ccc(/C=N/Nc2nccnc2Cl)c(O)c1
IC50: 63.2 µM

Fc1ccc(Nc2nc(NCc3ccco3)c3ccccc3n2)cc1
IC50: 32.6 µM

O=C(Nc1cccc(N=Cc2cc(Br)cc(Br)c2O)c1)c1ccco1
IC50: 119 µM

NC(Cc1cc(O)c(O)cc1O)C(=O)O (stereo unspecified)
IC50: 93 µM

Oc1cccc2ccc(Nc3ccccn3)nc12
IC50: 14.5 µM

O=C(Nc1nnc(-c2cccs2)o1)c1cccc(Oc2ccccc2)c1
IC50: 54.6 µM

ON=C1/C(=N\O)CC2(C/C1=N/O)OCCO2
IC50: 125 µM

CCn1cc(C(=O)O)c(=O)c2cc3c(cc21)OCO3
IC50: 67.5 µM

Cc1ccc(C(=O)O)cc1N=Cc1cc(Br)cc(Br)c1O
IC50: 105 µM

Cc1nc2c(=O)n(C)c(=O)nc-2n(C)n1
IC50: 0.6 µM

COc1c(N2CCN(C(=S)Nc3ccccc3F)C(C)C2)c(F)cc2c(=O)c(C(=O)O)cn(C3CC3)c12 (stereo unspecified)
IC50: 2.31 µM

C[C@H]1c2cccc(O)c2C(O)=C2C(=O)[C@]3(O)C(O)=C(C(N)=O)C(=O)[C@@H](N(C)C)[C@@H]3[C@@H](O)[C@@H]21
IC50: 1.54 µM

O=[N+]([O-])c1ccc(-c2ccn[nH]2)o1
IC50: 33.7 µM

CC[C@@H](C)[C@H](CNC)NC[C@@H](Cc1cccc2ccccc12)NCCc1cccc(C(F)(F)F)c1
IC50: 39.9 µM

CCCCCCCCNC(C)C(O)c1ccc(SC(C)C)cc1 (stereo unspecified)
IC50: 121 µM

CC(C)Oc1ccc(Cc2cnc(N)nc2N)cc1
IC50: 54.2 µM

CCCCCCCCCCCCCCCC[N+](C)(C)CC
IC50: 24.9 µM

CCCCCOc1ccc(CSC(=N)N)cc1[N+](=O)[O-]
IC50: 86.8 µM

O=Nc1ccc(O)c2ncccc12
IC50: 41.4 µM

Nc1cc(Cl)c2nonc2c1[N+](=O)[O-]
IC50: 39.8 µM

Cc1ccccc1OCc1n(CC(=O)OC2CC(C)CCC2C(C)C)c2ccccc2[n+]1C (stereo unspecified)
IC50: 80.1 µM

CCCCCCOC(=O)C[N+](C)(C)CCOC1CC2CCC1(C)C2(C)C (stereo unspecified)
IC50: 71.2 µM

CCN1/C(=C/C=C/C=C/c2sc3ccccc3[n+]2CC)Sc2ccccc21
IC50: 23.6 µM

c1ccc(-c2nnc(-c3ccccn3)nc2NC2CCCCC2)cc1
IC50: 148 µM

O=S1(=O)N=C(N/N=C/c2ccccn2)c2ccccc21
IC50: 29.1 µM

CCC(C)N1CCC2(CC1)N=c1c(c3c4c5c(C)c(O)c3c(O)c1=NC(=O)C(C)=CC=C[C@H](C)[C@H](O)[C@@H](C)[C@@H](O)[C@@H](C)[C@H](OC(C)=O)[C@H](C)[C@@H](OC)C=CO[C@@](C)(O5)C4=O)N2 (stereo partly specified)
IC50: 3.03 µM

C#CCOCCOCCOCCNc1nc(N2CCN(C(=O)CCCCCCCCCCNC(=O)[C@H]([C@@H](C)CC)n3cc(CCCCN=C(N)N)nn3)CC2)nc(N2CCN(C(=O)CCCCCCCCCCNC(=O)[C@H](CCCN=C(N)N)n3cc(C[C@@H](C)CC)nn3)CC2)n1
IC50: 30.6 µM

O=C(O)C1Nc2c(O)cccc2C2C=CCC12 (stereo unspecified)
IC50: 64.9 µM

O=C(N/N=C/c1cc([N+](=O)[O-])ccc1O)C1CC1
IC50: 45.2 µM

CCn1cc(C(=O)O)c(=O)c2cc(F)c(N3CCNCC3)cc21
IC50: 0.89 µM

CCOC(=O)C1=Nc2ccccc2C1=[N+]=[N-]
IC50: 50 µM

CCCCCOc1ccc(Br)cc1CSC(=N)N
IC50: 41.4 µM

COc1c(N2CCN(C(=S)Nc3ccc(F)cc3)C(C)C2)c(F)cc2c(=O)c(C(=O)O)cn(C3CC3)c12 (stereo unspecified)
IC50: 2.68 µM

O=C(Nc1ccccc1)Oc1ccc[nH]c1=O
IC50: 80.6 µM

CN1CCc2c(sc(NC(=O)c3ccc([N+](=O)[O-])o3)c2C(N)=O)C1
IC50: 33.7 µM

CCn1cc(C(=O)O)c(=O)c2cc(F)c(N3CCN(C(=S)NC(=O)c4ccccc4)CC3)cc21
IC50: 13.8 µM

NC1CCN(c2c(F)cc3c(=O)c(C(=O)O)cn(C4CC4)c3c2Cl)C1 (stereo unspecified)
IC50: < 0.23 µM

CCCCCCCOC(=O)C[N+](C)(C)CCOC1CC2CCC1(C)C2(C)C (stereo unspecified)
IC50: 40.6 µM

Oc1ccc(CN2CCCc3ccccc32)c2cccnc12
IC50: 20 µM

COc1c(N2CCN(C(=S)NCc3ccccc3)C(C)C2)c(F)cc2c(=O)c(C(=O)O)cn(C3CC3)c12 (stereo unspecified)
IC50: 31.9 µM

COc1cccc(/C=N\NC(=O)Cn2nnc3ccccc32)c1O
IC50: 75.1 µM

CCCC(=O)NC(c1ccc(C)cc1)c1ccc2cccnc2c1O (stereo unspecified)
IC50: 54.7 µM

CCN(CC)c1ccc(/C=N/Nc2nc3ccccc3[nH]2)c(O)c1
IC50: 39.9 µM

COc1cc(/C=C/[N+](=O)[O-])ccc1O
IC50: 65.1 µM

O=C(C[n+]1cc(-c2ccc(Cl)c(Cl)c2)n2c1CCC2)N1c2ccccc2Sc2ccccc21
IC50: 84.7 µM

CC[C@H]1OC(=O)[C@H](C)[C@@H](O[C@H]2C[C@@](C)(OC)[C@@H](O)[C@H](C)O2)[C@H](C)[C@@H](O[C@@H]2O[C@H](C)C[C@H](N(C)C)[C@H]2O)[C@](C)(O)C[C@@H](C)[C@@H]2N[C@@H](COCCOC)O[C@H]([C@H]2C)[C@]1(C)O
IC50: 22.6 µM

CCn1cc(C(=O)NCCCN(C)C)c(=O)c2cc(F)c(N3CCN(C)CC3)cc21
IC50: 64.3 µM

OC(c1cc(-c2ccc(C(F)(F)F)cc2)nc(C(F)(F)F)c1)C1CCCCN1 (stereo unspecified)
IC50: 42.2 µM

CC(=O)N1CCN(c2cc3c(cc2F)c(=O)c(C(=O)O)cn3C2CC2)CC1
IC50: 21.6 µM

Oc1c(C(Nc2ccccn2)c2ccccn2)ccc2cccnc12 (stereo unspecified)
IC50: 55.2 µM

CC[n+]1c(/C=C/N(C)c2ccccc2)n(-c2ccccc2)c2ccc(-c3nc4ccccc4s3)cc21
IC50: 21.8 µM

COC12C(COC(N)=O)C3=C(C(=O)C(C)=C(N)C3=O)N1CC1C2N1C (stereo unspecified)
IC50: 65.8 µM

CCCCCCCCCCCCCCCC[N+](C)(C)C
IC50: 37.9 µM

O=C(N/N=C/c1cc([N+](=O)[O-])ccc1O)c1ccncc1
IC50: 101 µM

CCN(CC)S(=O)(=O)c1cccc(C(=O)N/N=C/c2ccc(O)c(O)c2O)c1
IC50: 78.9 µM

C=CC1=C(C(=O)O)N2C(=O)[C@@H](NC(=O)/C(=N/OCC(=O)O)c3csc(N)n3)[C@H]2SC1
IC50: 17.9 µM

COc1ccc(C(=O)Cn2nc(CNc3ccc(Br)cc3)[n+]3c2CCCCC3)cc1
IC50: 106 µM

COc1c(N2CCN[C@H](C)C2)c(F)cc2c(=O)c(C(=O)O)cn(C3CC3)c12
IC50: 0.34 µM

O=C1OCC(CO)(CO)N=C1NNc1ccc(Cl)c(Cl)c1
IC50: 53.3 µM

O=C(Nc1nc(-c2ccccn2)cs1)c1ccc(Cl)s1
IC50: 27.8 µM

CCc1ccc(NC(=O)C[n+]2cc(-c3ccc(C)cc3)n3c2CCC3)cc1
IC50: 146 µM

O=C(NC(CO)Cc1ccc([N+](=O)[O-])cc1)C(Cl)Cl (stereo unspecified)
IC50: 9.48 µM

O=S(=O)(Nc1cc(Sc2cccc3cccnc23)c(O)c2ccccc12)c1ccc(F)cc1
IC50: 57.2 µM

COc1ccc(OC)c(C(=O)C2COC(=O)C2)c1 (stereo unspecified)
IC50: 134 µM

c1ccc2c(NC3=NCCS3)cccc2c1
IC50: 112 µM

Oc1ccc(CN2CCc3ccccc3C2)c2cccnc12
IC50: 30.5 µM

CC(Cc1ccccc1)NCc1ccccc1O (stereo unspecified)
IC50: 63.8 µM

COc1ccc(C(=O)N/N=C/c2sc3ccccc3c2O)cc1
IC50: 109 µM

O=C(CN1CCCC1)N/N=C/c1c(O)ccc2ccccc12
IC50: 70.6 µM

O=C(c1cccs1)c1no[n+]([O-])c1C(=O)c1cccs1
IC50: 13 µM

N=C(N)SCc1cn(-c2ccccc2)nc1-c1ccc(Br)cc1
IC50: 36.1 µM

O=c1c(O)cccc2cc(O)c(O)c(O)c12
IC50: 18.2 µM

CCCCCCCCCCCCCCCC[n+]1ccc(/C=N/O)cc1
IC50: 30.6 µM

Nc1nc(N)c(Cc2ccc(Cl)cc2Cl)c(N)n1
IC50: 149 µM

Cc1cc2nc3ccc(=[N+](C)C)cc-3sc2cc1N
IC50: 32.4 µM

C#CCOCCOCCOCCNc1nc(N2CCN(C(=O)CCCCCCCCCCNC(=O)[C@H](CO)n3cc(CCCCCN)nn3)CC2)nc(N2CCN(C(=O)CCCCCCCCCCNC(=O)[C@H](CCCN=C(N)N)n3cc(C[C@@H](C)CC)nn3)CC2)n1
IC50: 90.3 µM

Cc1cc(C)c2ccc(N)nc2c1O
IC50: 49.9 µM

CN(C)c1ccc(O)c2c1CC1CC3[C@@H](N(C)C)C(=O)C(C(N)=O)=C(O)[C@]3(O)C(=O)C1=C2O (stereo partly specified)
IC50: 1.54 µM

Cc1nnc(N/N=C/c2ccccn2)[nH]c1=O
IC50: 21.2 µM

CC(=O)NC(c1ccc(C)cc1)c1cc([N+](=O)[O-])c2cccnc2c1O (stereo unspecified)
IC50: 37.9 µM

Oc1ccc(NCc2ccccc2OCc2ccccc2F)cc1
IC50: 79.6 µM

CN1CCN(C(c2ccc(C(F)(F)F)cc2)c2cc(Cl)c3cccnc3c2O)CC1 (stereo unspecified)
IC50: 30.2 µM

Oc1c(C(Nc2cccc(C(F)(F)F)c2)c2cccnc2)ccc2cccnc12 (stereo unspecified)
IC50: 56.2 µM

COc1ccc(Nc2cc(C)c3c(O)cccc3n2)cc1
IC50: 70 µM

CCc1ccc(S(=O)(=O)/N=C2/C=C(Sc3ncn[nH]3)C(=O)c3ccccc32)cc1
IC50: 138 µM

CO/N=C(/C(=O)N[C@@H]1C(=O)N2C(C(=O)O)=CCS[C@H]12)c1cnc(N)s1
IC50: 23.6 µM

Oc1c(C(Nc2nc3ccccc3s2)c2ccco2)ccc2cccnc12 (stereo unspecified)
IC50: 57 µM

C=CC1=C(C(=O)O)N2C(=O)[C@@H](NC(=O)/C(=N\O)c3csc(N)n3)[C@H]2SC1 (stereo in doubt)
IC50: 33.8 µM

Oc1c(CN2CCc3ccccc3C2)cc(Cl)c2cccnc12
IC50: 7.36 µM

Cc1conc1NC(c1cccs1)c1ccc2cccnc2c1O (stereo unspecified)
IC50: 36.8 µM

CCOc1ccc(Nc2c3ccccc3nc3ccccc23)cc1
IC50: 94 µM

COc1ccc(OCC(O)CNc2ccc(Br)cc2)cc1 (stereo unspecified)
IC50: 20 µM

O=c1[nH]c2ccccc2n2c(=S)[nH]nc12
IC50: 29.1 µM

O=C(N/N=C/c1ccc([N+](=O)[O-])s1)C(O)c1ccccc1 (stereo unspecified)
IC50: 68.4 µM

Oc1cccc(/C=N/NC(=S)Nc2cccnc2)c1O
IC50: 28.7 µM
